These are literature values, as cited in patent US5627200A, “β3 -Adrenoceptor agonists and antagonists for the treatment of intestinal motility disorders, depression, prostate disease and dyslipidemia” (Pfizer Inc, priority 1994, dated 1997).

Data set [1] concerns rodent models of depression. To be noted: reported in Europ. J. Pharm., 219, 193 (1992).
In data set [2] the test system is genetic animal models of obesity and diabetes.

Regarding `CCOC(=O)COc1ccc2c(c1)C[C@@H](NC[C@H](O)c1cccc(Cl)c1)CC2.Cl` [N-[(2S)-7-carbethoxymethoxy-1,2,3,4-tetrahydronaphth-2-yl]-(2R)-2-hydroxy-2-(3-chlorophenyl)-ethanamine hydrochloride], the “activity in rodent models of depression” value in data set [1] is listed as “demonstrate activity in rodent models of depression”.

Consider `COC(=O)COc1ccc(CC(C)NCC(O)c2cccc(Cl)c2)cc1` (stereo not drawn) [N-[2-(4-carbomethoxymethoxyphenyl)-1-methylethyl]-2-hydroxy-2-(3-chlorophenyl)ethanamine], for which, in data set [2], the plasma fatty acids entry was “reduces” and the plasma triglycerides entry was “reduces”.
